In brackets after ≈: the same amount, converted by molar mass. Read-outs that look alike come from different tables or passages of the source.
How the values were obtained:
[1] = test system: Streptococcus pyogenes A 308; test: MIC, standard strain 1; type: cell-based; settings: A308, S. pyogenes A 308, two-fold dilution, Muller Hinton agar, 10^7 CFU/ml, 37° C., 18 hours, read-out: Minimal Inhibitory Concentration(MIC)
Procedure: (§1) In order to illustrate antibiotic effectiveness of the compounds of the present invention, the minimal inhibitory concentrations (MIC's) of the representative compounds were determined against standard strains and compared with ceftazidime and cefpirome, which were used as control compounds.
(§2) The MIC values were taken by employing a two-fold dilution method: that is, two-fold serial dilutions of each of the test compounds were made from initial concentration of […]; each 1.5 ml of them was dispersed in 13.5 ml of Muller Hinton agar medium to adjust to […]; the standard test strain which had the concentration of 10^7 CFU/ml was inoculated by medium;and these were incubated at 37° C. for 18 hours.
(§3) The test used twenty kinds of standard test strains which induced urinary tract infections, respiratory organ infections, skin soft tissue infections, plasma infections, gastrointestinal infections, central nervous system infections, most of which produce β-lactamase. The standard test strains used are as follows:
1. Streptococcus pyogenes A 308

[2] = test system: Staphylococcus aureus SG 511; test: MIC, standard strain 4; type: cell-based; settings: read-out: Minimal Inhibitory Concentration(MIC)
Procedure: as §1, §2, §3
4. Staphylococcus aureus SG 511

[3] = test system: Staphylococcus aureus 503; test: MIC, standard strain 6; type: cell-based; settings: Staphylococcus aureus; S. aureus 503; two-fold dilution, Muller Hinton agar, 10^7 CFU/ml, 37° C., 18 hours; read-out: Minimal Inhibitory Concentration(MIC)
Procedure: as §1, §2, §3
6. Staphylococcus aureus 503

Escherichia coli 0 55 = test: MIC, standard strain 7; type: cell-based; settings: 055, E. coli 0 55, two-fold dilution, Muller Hinton agar, 10^7 CFU/ml, 37° C., 18 hours, read-out: Minimal Inhibitory Concentration(MIC)
Procedure: as §1, §2
(§4) The test used twenty kinds of standard test strains which induced urinary tract infections, respiratory organ infections, skin soft tissue infections, plasma infections, gastrointestinal infections, central nervous system infections, most of which produce β-lactamase.

Escherichia coli DC 0 = test: MIC, standard strain 8; type: cell-based; settings: DC0, E. coli DC 0, two-fold dilution, Muller Hinton agar, 10^7 CFU/ml, 37° C., 18 hours, read-out: Minimal Inhibitory Concentration(MIC)
Procedure: as §1, §2, §4

Escherichia coli 1507 E = test: MIC, standard strain 11; type: cell-based; settings: E. coli 1507 E, two-fold dilution, Muller Hinton agar, 10^7 CFU/ml, 37° C., 18 hours, read-out: Minimal Inhibitory Concentration(MIC)
Procedure: as §1, §2, §4

[4] = test system: Pseudomonas aeruginosa 1592 E; test: MIC, standard strain 13; type: cell-based; settings: P. aeruginosa 1592 E, two-fold dilution, Muller Hinton agar, 10^7 CFU/ml, 37° C., 18 hours, read-out: Minimal Inhibitory Concentration(MIC)
Procedure: as §1, §2, §3
13. Pseudomonas aeruginosa 1592 E

[5] = test system: Pseudomonas aeruginosa 1771; test: MIC, standard strain 14; type: cell-based; settings: Pseudomonas aeruginosa; P. aeruginosa 1771; two-fold dilution, Muller Hinton agar, 10^7 CFU/ml, 37° C., 18 hours; read-out: Minimal Inhibitory Concentration(MIC)
Procedure: as §1, §2, §3
14. Pseudomonas aeruginosa 1771

[6] = test system: Pseudomonas aeruginosa 1771M; test: MIC, standard strain 15; type: cell-based; settings: 18 h, read-out: Minimal Inhibitory Concentration(MIC)
Procedure: as §1, §2, §3
15. Pseudomonas aeruginosa 1771M

[7] = test system: Klebsiella aerogenes 1552 E; test: MIC, standard strain 18; type: cell-based; settings: K. aerogenes 1552 E, two-fold dilution, Muller Hinton agar, 10^7 CFU/ml, 37° C., 18 hours, read-out: Minimal Inhibitory Concentration(MIC)
Procedure: as §1, §2, §3
18. Klebsiella aerogenes 1552 E

[8] = test system: Enterobacter cloacae 1321 E; test: MIC, standard strain 20; type: cell-based; settings: E. cloacae 1321 E, two-fold dilution, Muller Hinton agar, 10^7 CFU/ml, 37° C., 18 hours, read-out: Minimal Inhibitory Concentration(MIC)
Procedure: as §1, §2, §3
20. Enterobacter cloacae 1321 E

D StreptococcusII = test: MIC, clinically separated strains; type: cell-based, D Streptococcus; settings: Streptococcus, 18 h; for MIC: read-out: range of MIC
Procedure: as §2

MRSA(Yonsei Univ.) = test: MIC, clinically separated strains; type: cell-based; design: range of MIC: unit not given here
Procedure: as §2

Streptococcus I = test: MIC, clinically separated strains; type: cell-based; design: range of MIC: unit not given here; settings: 20 clinical strains; for MIC50 / MIC90: Streptococcus, 18 h
Procedure: as §2

Pseudomonas = settings: compared with DQ-2556 or ceftazidime; cited from earlier work
[9] = test system: Gram-negative and Gram-positive bacteria; settings: cited from earlier work
[10] = test system: Streptococcus pyogens A77; test: antibiotic activity against systemic infection in mice; type: in vivo; settings: A77, im, bacteria intraperitoneally, intramuscular injection, 5 to 0.078 mg/kg, probit method (confidence limit), read-out: PD50
Procedure: In order to illustrate clinical effectiveness of the compounds of the present invention more specifically, the stability to β-lactamase and antibiotic activity against systemic infection, were tested, and the results are shown in Table 4 and 5, respectively.
Antibiotic activity against systematic infection was tested by using mice: that is, 0.3 ml of a strain solution containing fatal dose of bacteria in 0.3 ml was administered to mice intraperitoneally; and then, the test antibiotics were administered intramuscularly in an amount of 5 to 0.078 mg/kg. PD50 was calculated by probit method.

acute toxicity test = settings: in vivo, iv
[11] = Staphylococcus aureus, MRSA, 18 h, 17 clinical strains

Compound	MIC [1] [µg/mL]	MIC [3] [µg/mL]	MIC (Escherichia coli 0 55) [µg/mL]	MIC (Escherichia coli DC 0) [µg/mL]	MIC (Escherichia coli 1507 E) [µg/mL]	MIC [4] [µg/mL]	MIC [5] [µg/mL]	MIC [6] [µg/mL]	MIC [7] [µg/mL]	MIC [8] [µg/mL]	MIC50 (D StreptococcusII; 19 clinical strains) [µg/mL]	MIC90 (D StreptococcusII; 19 clinical strains) [µg/mL]	antibiotic activities against MRSA(Yonsei Univ.), in words (MRSA(Yonsei Univ.))	MIC50 (MRSA(Yonsei Univ.); [11]) [µg/mL]	MIC90 (MRSA(Yonsei Univ.); [11]) [µg/mL]	MIC50 (Streptococcus I) [µg/mL]	MIC90 (Streptococcus I) [µg/mL]	also measured
CO/N=C(\C(=O)N[C@@H]1C(=O)N2C(C(=O)[O-])=C(C[n+]3cccc4c3CCC4)CS[C@H]12)c1csc(N)n1 [cefpirome, reference compound]	4 (≈ 7.77 µM)	13 (≈ 25.3 µM)	13 (≈ 25.3 µM)	49 (≈ 95.2 µM)	75 (≈ 146 µM)	1560 (≈ 3040 µM)	391 (≈ 760 µM)	195 (≈ 379 µM)	25 (≈ 48.6 µM)	13 (≈ 25.3 µM)	50 (≈ 97.2 µM)	100 (≈ 194 µM)	shows resistance to cefpirome	100 (≈ 194 µM)	100 (≈ 194 µM)	0.025 (≈ 0.0486 µM)	12.5 (≈ 24.3 µM)	MIC ([2]; SG511, S. aureus SG 511, two-fold dilution, Muller Hinton agar, 10^7 CFU/ml, 37° C., 18 hours): 391 µg/mL (≈ 760 µM); MIC (D StreptococcusII): 6.25 to 100 µg/mL (≈ 12.1 to 194 µM); MIC (MRSA(Yonsei Univ.); Staphylococcus aureus, MRSA, 18 h, read-out: range of MIC, 17 clinical strains): 100 µg/mL (≈ 194 µM); activity against Pseudomonas, in words (Pseudomonas): inferior to ceftazidime; activity against Gram-negative and Gram-positive bacteria, in words [9]: improved activity against Gram-negative and Gram-positive bacteria
CO/N=C(\C(=O)N[C@@H]1C(=O)N2C(C(=O)[O-])=C(C[n+]3ccc(C(N)=O)c4c3CCC4)CS[C@H]12)c1csc(N)n1 [Example 3]	0.7 (≈ 1.26 µM)	391 (≈ 701 µM)	31 (≈ 55.6 µM)	25 (≈ 44.8 µM)	25 (≈ 44.8 µM)	1560 (≈ 2800 µM)	391 (≈ 701 µM)	195 (≈ 350 µM)	25 (≈ 44.8 µM)	7 (≈ 12.6 µM)	25 (≈ 44.8 µM)	100 (≈ 179 µM)	unexpectedly potent antibiotic activities	12.5 (≈ 22.4 µM)	100 (≈ 179 µM)	0.025 (≈ 0.0448 µM)	12.5 (≈ 22.4 µM)	MIC ([2]; SG511, 18 h): 391 µg/mL (≈ 701 µM); MIC (D StreptococcusII; 19 clinical strains): 6.25 to 100 µg/mL (≈ 11.2 to 179 µM); range of MIC (MRSA(Yonsei Univ.); 17 clinical strains): 0.013-100.000; range of MIC (Streptococcus I): 0.007-25.000; ED50 [10]: 0.29 mg/kg; LD50 (acute toxicity test): > 3000 mg/kg
